# In patent US20160244436A1, “NOVEL FUNCTIONALIZED 5-(PHENOXYMETHYL)-1,3-DIOXANE ANALOGS EXHIBITING CYTOCHROME P450 INHIBITION AND THEIR METHOD OF USE” (CORTENDO AB (PUBL), priority 2013, published 2016):
# Legend:
# Type in all cases: cell-based
# [1] = target: T1, recombinant CYP-17 (Homo sapiens, UniProt P05093); test: Cyp17 assay: AD293 cells over-expressing recombinant CYP-17, 3H-acetic acid release from [21-3H] 17α-hydroxyl-Pregnenolone
# T1 construct: expressed in transfected cells; host or cells: AD293
# T1 sequence (P05093 1-508): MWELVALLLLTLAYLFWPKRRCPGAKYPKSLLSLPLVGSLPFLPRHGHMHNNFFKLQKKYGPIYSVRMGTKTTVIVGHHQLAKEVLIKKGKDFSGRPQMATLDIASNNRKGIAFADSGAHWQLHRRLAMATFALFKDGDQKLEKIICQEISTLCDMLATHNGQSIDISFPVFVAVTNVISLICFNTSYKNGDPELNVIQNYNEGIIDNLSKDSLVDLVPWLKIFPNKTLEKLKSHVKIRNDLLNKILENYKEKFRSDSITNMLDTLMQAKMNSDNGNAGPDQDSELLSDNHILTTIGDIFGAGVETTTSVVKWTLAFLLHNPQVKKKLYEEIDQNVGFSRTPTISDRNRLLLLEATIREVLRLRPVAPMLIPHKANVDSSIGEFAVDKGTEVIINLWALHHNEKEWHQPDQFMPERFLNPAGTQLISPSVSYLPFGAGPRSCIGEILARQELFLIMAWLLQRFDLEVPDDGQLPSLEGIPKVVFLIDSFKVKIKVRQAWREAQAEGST
# Experimental: Cyp17 assay protocol: AD293 cells that stably over-express recombinant CYP-17 were seeded in 96 well plates coated with poly D-lysine (15,000 cell per well) and incubated at 37° C. for 24 hours in Dulbecco's Modified Eagle Medium (DMEM) with Fetal Bovine Serum (FBS) that is stripped of hormones by charcoal treatment. The media is then removed, the cells are washed once with Phosphate buffer saline solution, and 50 μL Dulbecco's Modified Eagle Medium (DMEM) with Fetal Bovine Serum (FBS) that is stripped of hormones by charcoal treatment is added. Compounds of the disclosure are then added to the wells in eight concentration spanning 10 μM to 4.5 nM, and the plates are incubated for an additional 60 minutes at 37° C. [21-^3H] 17α-hydroxyl-Pregnenolone is then added (50 nCi per well, 31.25 nM) and the plates are incubated for an additional 4 hours at 37° C. The media is then collected, 200 μL, of chloroform is added, and the mixture is shaken for 1 hour. The aqueous layer is then separated and analyzed for the presence of ^3H-acetic acid using a Perkin Elmer Topcount NXT to determine IC50s of the compounds of the disclosure.
# [2] = target: T2, recombinant CYP-21 (Homo sapiens, UniProt P08686); test: Cyp21 assay: AD293 cells over-expressing recombinant CYP-21, 11-deoxycortisol formation from 17α-OH Progesterone by LC/MS
# T2 construct: expressed in transfected cells; host or cells: AD293
# T2 sequence (P08686 1-495): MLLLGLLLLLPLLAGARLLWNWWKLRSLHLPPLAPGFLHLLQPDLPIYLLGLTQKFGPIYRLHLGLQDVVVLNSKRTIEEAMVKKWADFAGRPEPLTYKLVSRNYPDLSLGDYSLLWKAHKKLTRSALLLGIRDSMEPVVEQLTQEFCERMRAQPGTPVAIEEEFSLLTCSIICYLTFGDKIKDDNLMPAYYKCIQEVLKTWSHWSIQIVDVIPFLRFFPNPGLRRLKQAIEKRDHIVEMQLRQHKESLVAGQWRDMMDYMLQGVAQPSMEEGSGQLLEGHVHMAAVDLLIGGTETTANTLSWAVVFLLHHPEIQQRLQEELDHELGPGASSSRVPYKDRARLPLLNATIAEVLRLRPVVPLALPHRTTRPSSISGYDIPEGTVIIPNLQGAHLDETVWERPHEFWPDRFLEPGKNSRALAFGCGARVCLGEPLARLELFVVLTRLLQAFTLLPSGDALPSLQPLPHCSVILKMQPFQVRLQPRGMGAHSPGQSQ
# Experimental: Cyp21 assay protocol: AD293 cells that stably over-express recombinant CYP-21 were seeded in 96 well plates coated with poly D-lysine (10,000 cell per well) and incubated at 37° C. for 24 hours in Dulbecco's Modified Eagle Medium (DMEM) with Fetal Bovine Serum (FBS) that is stripped of hormones by charcoal treatment. The media is then removed, the cells are washed once with Phosphate buffer saline solution, and 50 μL Dulbecco's Modified Eagle Medium (DMEM) with Fetal Bovine Serum (FBS) that is stripped of hormones by charcoal treatment is added. Compounds of the disclosure are then added to the wells in eight concentration spanning 10 μM to 4.5 nM, and the plates are incubated for an additional 60 minutes at 37° C. 17α-OH Progesterone is then added (1.0 μM) and the plates are incubated for an additional 45 minutes at 37° C. After incubation, 50 uL of the supernatant (medium) is transferred into a fresh plate and 150 uL of an acetonitrile solution containing 200 ng/ml of Telmisartan is added. The sample is mixed and then placed in a centrifuge at 2000 rpm for 5 minutes. 100 uL of the supernatant is transferred into a fresh 96 well deep well plate, 100 uL of 1:1 methanol:water was added, the solution was mixed and then analyzed by LC/MS for the presence of 11-deoxycortisol using an Agilent 1200 RRLC/ABSCIEX API4000 LC-MS or Shimadzu Prominance/ABSCIEX API4000 LC-MS to determine IC5os of the compounds of the disclosure.
# [3] = target: T3, recombinant CYP-11 (Homo sapiens, UniProt P15538); test: Cyp11 assay: AD293 cells over-expressing recombinant CYP-11, cortisol formation from 11-deoxycortisol by LC/MS
# T3 construct: expressed in transfected cells; host or cells: AD293
# T3 sequence (P15538 25-503): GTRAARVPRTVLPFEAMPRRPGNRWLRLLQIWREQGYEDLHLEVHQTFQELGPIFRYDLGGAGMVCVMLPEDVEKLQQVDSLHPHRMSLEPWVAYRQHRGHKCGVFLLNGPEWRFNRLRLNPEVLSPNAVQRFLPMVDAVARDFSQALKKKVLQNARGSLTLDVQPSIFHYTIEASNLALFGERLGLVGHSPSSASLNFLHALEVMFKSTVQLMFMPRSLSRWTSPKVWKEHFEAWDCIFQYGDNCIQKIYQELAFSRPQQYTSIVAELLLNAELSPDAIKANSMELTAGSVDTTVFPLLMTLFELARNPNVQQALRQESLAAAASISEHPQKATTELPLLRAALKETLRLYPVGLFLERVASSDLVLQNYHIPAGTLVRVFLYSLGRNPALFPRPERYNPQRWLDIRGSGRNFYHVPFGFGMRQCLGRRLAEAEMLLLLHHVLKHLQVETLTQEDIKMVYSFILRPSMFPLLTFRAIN
# Experimental: Cyp11 assay protocol: AD293 cells that stably over-express recombinant CYP-11 were seeded in 96 well plates coated with poly D-lysine (15,000 cell per well) and incubated at 37° C. for 24 hours in Dulbecco's Modified Eagle Medium (DMEM) with Fetal Bovine Serum (FBS) that is stripped of hormones by charcoal treatment. The media is then removed, the cells are washed once with Phosphate buffer saline solution, and 50 μL Dulbecco's Modified Eagle Medium (DMEM) with Fetal Bovine Serum (FBS) that is stripped of hormones by charcoal treatment is added. Compounds of the disclosure are then added to the wells in eight concentration spanning 10 μM to 4.5 nM, and the plates are incubated for an additional 60 minutes at 37° C. 11-deoxycortisol is then added (2.0 μM) and the plates are incubated for an additional 12 hours at 37° C. After incubation, 50 uL of the supernatant (medium) is transferred into a fresh plate and 150 uL of an acetonitrile solution containing 200 ng/ml of Telmisartan is added. The sample is mixed and then placed in a centrifuge at 2000 rpm for 5 minutes. 100 uL of the supernatant is transferred into a fresh 96 well deep well plate, 100 uL of 1:1 methanol:water was added, the solution was mixed and then analyzed by LC/MS for the presence of cortisol using an Agilent 1200 RRLC/ABSCIEX API4000 LC-MS or Shimadzu Prominance/ABSCIEX API4000 LC-MS to determine IC5os of the compounds of the disclosure.
Compound,IC50 [1] [nM],IC50 [2] [nM],IC50 [3] [nM]
Clc1ccccc1[C@]1(Cn2ccnc2)OC[C@H](OCc2ccc(N3CCOCC3)cc2)CO1 [Example 500006],8000,4760,–
CC(=O)N1CCN(c2ccc(CO[C@H]3CO[C@@](Cn4ccnc4)(c4ccccc4Cl)OC3)cc2)CC1 [Example 500004],≥ 10000,–,–
O=S(=O)(c1cccc(OC(F)(F)F)c1)N1CCN(c2ccc(CO[C@H]3CO[C@](Cn4ccnc4)(c4ccc(Cl)cc4Cl)OC3)cc2)CC1 [Example 500022],101,170,13
CS(=O)(=O)N1CCN(c2ccc(CO[C@H]3CO[C@](Cn4ccnc4)(c4ccccc4Cl)OC3)cc2)CC1 [Example 500012],12,1520,100
CCOC(=O)CNC(=O)N1CCN(c2ccc(CO[C@H]3CO[C@@](Cn4ccnc4)(c4ccccc4Cl)OC3)cc2)CC1 [Example 510019],≥ 10000,–,5800
O=S(=O)(c1cccnc1)N1CCN(c2ccc(CO[C@H]3CO[C@](Cn4ccnc4)(c4ccc(Cl)cc4Cl)OC3)cc2)CC1 [Example 500025],13,273,12
N#Cc1cccc(S(=O)(=O)N2CCN(c3ccc(CO[C@H]4CO[C@](Cn5ccnc5)(c5ccc(Cl)cc5Cl)OC4)cc3)CC2)c1 [Example 500016],75,415,37
CC(=O)N1CCN(c2ccc(CO[C@H]3CO[C@](Cn4ccnc4)(c4ccccc4Cl)OC3)cc2)CC1 [Example 500003],146,1480,521
CC(=O)N1CCN(c2ccc(CO[C@H]3CO[C@](Cn4ccnc4)(c4ccc(Cl)cc4Cl)OC3)cc2)CC1 [Example 500015],8,208,12
O=S(=O)(C1CC1)N1CCN(c2ccc(CO[C@H]3CO[C@](Cn4ccnc4)(c4ccc(Cl)cc4Cl)OC3)cc2)CC1 [Example 500018],11,262,6
CN(C)C(=O)N1CCN(c2ccc(CO[C@H]3CO[C@](Cn4ccnc4)(c4ccccc4Cl)OC3)cc2)CC1 [Example 510013],27,800,70
Clc1ccccc1[C@]1(Cn2ccnc2)OC[C@@H](OCc2ccc(N3CCOCC3)cc2)CO1 [Example 500005],260,960,–
Clc1ccc([C@]2(Cn3ccnc3)OC[C@@H](OCc3ccc(-c4ccncc4)cc3)CO2)c(Cl)c1 [Example 500024],33,68,23
O=S(=O)(c1c[nH]cn1)N1CCN(c2ccc(CO[C@H]3CO[C@](Cn4ccnc4)(c4ccc(Cl)cc4Cl)OC3)cc2)CC1 [Example 500023],67,426,14

# Results, then the molecule that gave them:
IC50 [1] [nM],IC50 [2] [nM],IC50 [3] [nM],Compound
1100,–,12,CC(=O)N1CCN(c2ccc(CO[C@H]3CO[C@@](Cn4ccnc4)(c4ccc(Cl)cc4Cl)OC3)cc2)CC1 [Example 500019]
42,391,440,Clc1ccccc1[C@]1(Cn2ccnc2)OC[C@@H](OCc2ccc(-c3ccncc3)cc2)CO1 [Example 510017]
106,1100,27,O=S(=O)(CCCCl)N1CCN(c2ccc(CO[C@H]3CO[C@](Cn4ccnc4)(c4ccc(Cl)cc4Cl)OC3)cc2)CC1 [Example 500017]
9,130,200,CCS(=O)(=O)N1CCN(c2ccc(CO[C@H]3CO[C@](Cn4ccnc4)(c4ccc(Cl)cc4Cl)OC3)cc2)CC1 [Example 500021]
2500,800,–,COCCOC(=O)N1CCN(c2ccc(CO[C@H]3CO[C@@](Cn4ccnc4)(c4ccccc4Cl)OC3)cc2)CC1 [Example 510012]
11,110,25,CC(C)S(=O)(=O)N1CCN(c2ccc(CO[C@H]3CO[C@](Cn4ccnc4)(c4ccc(Cl)cc4Cl)OC3)cc2)CC1 [Example 500020]
1500,2500,–,CS(=O)(=O)N1CCN(c2ccc(CO[C@H]3CO[C@@](Cn4ccnc4)(c4ccccc4Cl)OC3)cc2)CC1 [Example 500013]
40,2800,107,CCOC(=O)CNC(=O)N1CCN(c2ccc(CO[C@H]3CO[C@](Cn4ccnc4)(c4ccccc4Cl)OC3)cc2)CC1 [Example 510018]
20,570,140,COCCOC(=O)N1CCN(c2ccc(CO[C@H]3CO[C@](Cn4ccnc4)(c4ccccc4Cl)OC3)cc2)CC1 [Example 510014]
